Measurements as given in paper PMC4365270 (Cancer Chemotherapy and Pharmacology, 2015).
“Also recorded” adds a separate entry of the source. Read-outs that look alike come from different tables or passages of the source.

Key:
[1] = set-up: method as in PMID 23813446; conditions: mice; cited from earlier work
[2] = biological target: T1, cIAP-1 (Homo sapiens, UniProt Q13490); test: cIAP1 IHC in skin and tumor biopsies; assay type: in vivo
T1 construct: endogenous in cells; host or cells: peripheral blood mononuclear cells (PBMCs) of patients
T1 sequence (Q13490 whole entry): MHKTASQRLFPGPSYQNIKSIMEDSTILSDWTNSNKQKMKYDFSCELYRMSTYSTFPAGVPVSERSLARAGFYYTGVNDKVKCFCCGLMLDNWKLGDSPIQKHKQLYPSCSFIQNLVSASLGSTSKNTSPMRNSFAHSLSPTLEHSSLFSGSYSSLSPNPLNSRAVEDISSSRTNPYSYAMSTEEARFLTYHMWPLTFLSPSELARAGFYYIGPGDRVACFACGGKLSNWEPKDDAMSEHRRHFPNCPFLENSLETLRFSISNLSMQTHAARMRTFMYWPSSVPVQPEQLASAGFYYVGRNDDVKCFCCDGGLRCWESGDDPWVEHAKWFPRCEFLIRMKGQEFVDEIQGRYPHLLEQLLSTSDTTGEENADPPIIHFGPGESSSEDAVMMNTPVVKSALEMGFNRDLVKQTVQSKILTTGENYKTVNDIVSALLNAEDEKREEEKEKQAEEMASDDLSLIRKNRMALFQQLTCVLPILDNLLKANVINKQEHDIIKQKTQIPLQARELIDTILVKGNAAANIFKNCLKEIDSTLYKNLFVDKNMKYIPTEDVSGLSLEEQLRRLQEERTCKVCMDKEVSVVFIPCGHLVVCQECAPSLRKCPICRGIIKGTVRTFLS
Method: (§1) Pharmacokinetic samples were taken from all patients on day 1 (predose, 0.5, 1, 2, 3, 4, 6, 8, 12, 18 h postdose) and on day 5 (predose, 0.5, 1, 2, 3, 4, 6, 8 h postdose) of the first cycle. In addition, for exploratory PD analysis of IAP inhibition and activation of apoptosis, optional skin and tumor biopsies were taken from consenting patients on days 1 (predose) and 5 and blood samples on day 1 (predose, 1, 3, 6, 8, 12 h postdose), day 2 (predose), and day 5 (3 h postdose).
cIAP-1 levels were measured in tumor tissue and surrogate tissue as available. Peripheral blood mononuclear cells (PBMCs) were analyzed for DEBIO1143-induced cIAP-1 degradation. Plasma native cytokeratin-18 (M65) or caspase-3 generated cytokeratin-18 fragments (M30), interleukin 8 (IL8), chemokine ligand 2 (CCL2, MCP1), and tumor necrosis factor α (TNFα) were measured by ELISA as markers of epithelial cell death and inflammation on days 1 (predose, 1, 3, 6, and 12 h postdose), 2, and 5.
For the detection of cIAP-1 in paraffin-embedded human tissue, a validated immunohistochemical (IHC) assay was used. DEBIO1143-induced cIAP-1 degradation was measured in PBMCs using Western blot. Plasma biomarkers were measured through commercial ELISAs. All laboratory analyses were performed by MPI Research, Inc. (PK) and Mosaic Laboratory, LLC (PD).

[3] = Plasma pharmacokinetics of DEBIO1143 in patients (LC-MS/MS); assay type: in vivo, human; conditions: for AUC(0-t) / Cmax / Tmax / AUC(0-inf) / half-life: human, plasma
Method: as §1
C max and t max were determined by direct assessment of the observed concentration versus time curves. The area under the curve until the last quantifiable concentration (AUC0−t) was estimated by a linear up/log down method if ≥3 values were available and extrapolated to infinity (AUCinf), if the extrapolated part was <30 %. The terminal elimination half-life (T 1/2) was calculated as the ratio of loge^2 to the apparent terminal phase rate constant (λ z), determined through unweighted linear regression analysis on ≥3 log-transformed concentrations on the linear portion of the terminal slope, excluding the peak concentration. In general, points maximizing R ^2 up to at least 0.9 were included for linear regression.
For the detection of cIAP-1 in paraffin-embedded human tissue, a validated immunohistochemical (IHC) assay was used. […] Plasma biomarkers were measured through commercial ELISAs. All laboratory analyses were performed by MPI Research, Inc. (PK) and Mosaic Laboratory, LLC (PD).

[4] = test system: cIAP-1; set-up: method as in PMID 21443232; conditions: cited from earlier work
[5] = oral, 80 mg, day 1, n=3, mean (SD)
[6] = oral, 80 mg, day 5, n=3, mean (SD)
[7] = oral, 120 mg, day 1, n=3, mean (SD)
[8] = oral, 120 mg, day 5, n=3, mean (SD)
[9] = oral, 180 mg, day 1, n=7, mean (SD)
[10] = oral, 180 mg, day 5, n=7, mean (SD)
[11] = oral, 260 mg, day 1, n=3, mean (SD)
[12] = oral, 260 mg, day 5, n=3, mean (SD)
[13] = oral, 400 mg, day 1, n=3, mean (SD)
[14] = oral, 400 mg, day 5, n=3, mean (SD)
[15] = oral, 600 mg, day 1, n=3, mean (SD)
[16] = oral, 600 mg, day 5, n=3, mean (SD)
[17] = oral, 900 mg, day 1, n=6, mean (SD)
[18] = oral, 900 mg, day 5, n=6, mean (SD)

Structure (SMILES): CN[C@@H](C)C(=O)N[C@H]1CN(C(=O)CC(C)C)CC[C@H]2CC[C@@H](C(=O)NC(c3ccccc3)c3ccccc3)N2C1=O [DEBIO1143]
- Oral bioavailability [1]: good
- cIAP1 level in skin biopsies (IHC) ([2]; 12 patients): trend for a decrease
- Immunoactivity of cIAP1 in tumor biopsy (IHC) ([2]; melanoma patient, 120 mg/day, day 5, predose 150): 130
- Percentage of cIAP1-positive cells in tumor biopsies ([2]; melanoma patient, 400 mg/d): only negligible effect
- Dose proportionality of C max and AUC ([3]; doses 80 to 900 mg): increased proportionally; also recorded: proportional to doses ≥80 mg
- Drug levels versus levels active in animal models ([3]; doses of ≥80 mg): exceeded levels that have demonstrated activity in animal models
- AUC(0-t) ([3]; oral, 5 mg, day 1, n=1): 19.6 ng·h/mL
- Cmax ([3]; oral, 5 mg, day 1, n=1): 6.69 ng/mL
- Tmax ([3]; oral, 5 mg, day 1, n=1, read-out: T max): 3 h
- AUC(0-t) ([3]; oral, 5 mg, day 5, n=1): 43.4 ng·h/mL
- Cmax ([3]; oral, 5 mg, day 5, n=1): 18.5 ng/mL
- Tmax ([3]; oral, 5 mg, day 5, n=1, read-out: T max): 1.6 h
- AUC(0-inf) ([3]; oral, 10 mg, day 1, n=1): 152 ng·h/mL
- AUC(0-t) ([3]; oral, 10 mg, day 1, n=1): 129 ng·h/mL
- Cmax ([3]; oral, 10 mg, day 1, n=1): 37.4 ng/mL
- half-life ([3]; oral, 10 mg, day 1, n=1, read-out: T 1/2 (converted)): 148 min
- Tmax ([3]; oral, 10 mg, day 1, n=1, read-out: T max): 1 h
- AUC(0-inf) ([3]; oral, 10 mg, day 5, n=1): 117 ng·h/mL
- AUC(0-t) ([3]; oral, 10 mg, day 5, n=1): 103 ng·h/mL
- Cmax ([3]; oral, 10 mg, day 5, n=1): 26.9 ng/mL
- half-life ([3]; oral, 10 mg, day 5, n=1, read-out: T 1/2 (converted)): 152 min
- Tmax ([3]; oral, 10 mg, day 5, n=1, read-out: T max): 3.5 h
- AUC(0-inf) ([3]; oral, 20 mg, day 1, n=1): 643 ng·h/mL
- AUC(0-t) ([3]; oral, 20 mg, day 1, n=1): 615 ng·h/mL
- Cmax ([3]; oral, 20 mg, day 1, n=1): 126 ng/mL
- half-life ([3]; oral, 20 mg, day 1, n=1, read-out: T 1/2 (converted)): 326 min
- Tmax ([3]; oral, 20 mg, day 1, n=1, read-out: T max): 1 h
- AUC(0-inf) ([3]; oral, 20 mg, day 5, n=1): 451 ng·h/mL
- AUC(0-t) ([3]; oral, 20 mg, day 5, n=1): 375 ng·h/mL
- Cmax ([3]; oral, 20 mg, day 5, n=1): 134 ng/mL
- half-life ([3]; oral, 20 mg, day 5, n=1, read-out: T 1/2 (converted)): 202 min
- Tmax ([3]; oral, 20 mg, day 5, n=1, read-out: T max): 0.5 h
- AUC(0-inf) ([3]; oral, 40 mg, day 1, n=1): 2300 ng·h/mL
- AUC(0-t) ([3]; oral, 40 mg, day 1, n=1): 2140 ng·h/mL
- Cmax ([3]; oral, 40 mg, day 1, n=1): 627 ng/mL
- half-life ([3]; oral, 40 mg, day 1, n=1, read-out: T 1/2 (converted)): 383 min
- Tmax ([3]; oral, 40 mg, day 1, n=1, read-out: T max): 1 h
- AUC(0-t) ([3]; oral, 40 mg, day 5, n=1): 1090 ng·h/mL
- Cmax ([3]; oral, 40 mg, day 5, n=1): 184 ng/mL
- Tmax ([3]; oral, 40 mg, day 5, n=1, read-out: T max): 6.1 h
- AUC(0-inf) [3, 5]: 6660 ng·h/mL
- AUC(0-t) [3, 5]: 6390 ng·h/mL
- Cmax [3, 5]: 1330 ng/mL
- half-life ([3]; oral, 80 mg, day 1, n=3, mean (SD), read-out: T 1/2 (converted)): 313 min
- Tmax ([3]; oral, 80 mg, day 1, n=3, median (min–max), read-out: T max): 2 h
- AUC(0-inf) [3, 6]: 5920 ng·h/mL
- AUC(0-t) [3, 6]: 5020 ng·h/mL
- Cmax [3, 6]: 1670 ng/mL
- half-life ([3]; oral, 80 mg, day 5, n=3, mean (SD), read-out: T 1/2 (converted)): 161 min
- Tmax ([3]; oral, 80 mg, day 5, n=3, median (min–max), read-out: T max): 2 h
- AUC(0-inf) [3, 7]: 7460 ng·h/mL
- AUC(0-t) [3, 7]: 6890 ng·h/mL
- Cmax [3, 7]: 1650 ng/mL
- half-life ([3]; oral, 120 mg, day 1, n=3, mean (SD), read-out: T 1/2 (converted)): 383 min
- Tmax ([3]; oral, 120 mg, day 1, n=3, median (min–max), read-out: T max): 1 h
- AUC(0-inf) [3, 8]: 6770 ng·h/mL
- AUC(0-t) [3, 8]: 5430 ng·h/mL
- Cmax [3, 8]: 1190 ng/mL
- half-life ([3]; oral, 120 mg, day 5, n=3, mean (SD), read-out: T 1/2 (converted)): 157 min
- Tmax ([3]; oral, 120 mg, day 5, n=3, median (min–max), read-out: T max): 2 h
- AUC(0-inf) [3, 9]: 11400 ng·h/mL
- AUC(0-t) [3, 9]: 10600 ng·h/mL
- Cmax [3, 9]: 2130 ng/mL
- half-life ([3]; oral, 180 mg, day 1, n=7, mean (SD), read-out: T 1/2 (converted)): 364 min
- Tmax ([3]; oral, 180 mg, day 1, n=7, median (min–max), read-out: T max): 2 h
- AUC(0-inf) [3, 10]: 9980 ng·h/mL
- AUC(0-t) [3, 10]: 7210 ng·h/mL
- Cmax [3, 10]: 2160 ng/mL
- half-life ([3]; oral, 180 mg, day 5, n=7, mean (SD), read-out: T 1/2 (converted)): 248 min
- Tmax ([3]; oral, 180 mg, day 5, n=7, median (min–max), read-out: T max): 2 h
- AUC(0-inf) [3, 11]: 17900 ng·h/mL
- AUC(0-t) [3, 11]: 16300 ng·h/mL
- Cmax [3, 11]: 2890 ng/mL
- half-life ([3]; oral, 260 mg, day 1, n=3, mean (SD), read-out: T 1/2 (converted)): 395 min
- Tmax ([3]; oral, 260 mg, day 1, n=3, median (min–max), read-out: T max): 3 h
- AUC(0-inf) [3, 12]: 11700 ng·h/mL
- AUC(0-t) [3, 12]: 10600 ng·h/mL
- Cmax [3, 12]: 2760 ng/mL
- half-life ([3]; oral, 260 mg, day 5, n=3, mean (SD), read-out: T 1/2 (converted)): 197 min
- Tmax ([3]; oral, 260 mg, day 5, n=3, median (min–max), read-out: T max): 2 h
- AUC(0-inf) [3, 13]: 27000 ng·h/mL
- AUC(0-t) [3, 13]: 25000 ng·h/mL
- Cmax [3, 13]: 5280 ng/mL
- half-life ([3]; oral, 400 mg, day 1, n=3, mean (SD), read-out: T 1/2 (converted)): 376 min
- Tmax ([3]; oral, 400 mg, day 1, n=3, median (min–max), read-out: T max): 1 h
- AUC(0-inf) [3, 14]: 26500 ng·h/mL
- AUC(0-t) [3, 14]: 20100 ng·h/mL
- Cmax [3, 14]: 5540 ng/mL
- half-life ([3]; oral, 400 mg, day 5, n=3, mean (SD), read-out: T 1/2 (converted)): 222 min
- Tmax ([3]; oral, 400 mg, day 5, n=3, median (min–max), read-out: T max): 0.5 h
- AUC(0-inf) [3, 15]: 28700 ng·h/mL
- AUC(0-t) [3, 15]: 27000 ng·h/mL
- Cmax [3, 15]: 5780 ng/mL
- half-life ([3]; oral, 600 mg, day 1, n=3, mean (SD), read-out: T 1/2 (converted)): 345 min
- Tmax ([3]; oral, 600 mg, day 1, n=3, median (min–max), read-out: T max): 1.1 h
- AUC(0-inf) [3, 16]: 25000 ng·h/mL
- AUC(0-t) [3, 16]: 20200 ng·h/mL
- Cmax [3, 16]: 7110 ng/mL
- half-life ([3]; oral, 600 mg, day 5, n=3, mean (SD), read-out: T 1/2 (converted)): 212 min
- Tmax ([3]; oral, 600 mg, day 5, n=3, median (min–max), read-out: T max): 1 h
- AUC(0-inf) [3, 17]: 61500 ng·h/mL
- AUC(0-t) [3, 17]: 56100 ng·h/mL
- Cmax [3, 17]: 10100 ng/mL
- half-life ([3]; oral, 900 mg, day 1, n=6, mean (SD), read-out: T 1/2 (converted)): 427 min
- Tmax ([3]; oral, 900 mg, day 1, n=6, median (min–max), read-out: T max): 1.5 h
- AUC(0-inf) [3, 18]: 47000 ng·h/mL
- AUC(0-t) [3, 18]: 36900 ng·h/mL
- Cmax [3, 18]: 10300 ng/mL
- half-life ([3]; oral, 900 mg, day 5, n=6, mean (SD), read-out: T 1/2 (converted)): 189 min
- Tmax ([3]; oral, 900 mg, day 5, n=6, median (min–max), read-out: T max): 1.5 h
- half-life ([3]; oral, all doses, read-out: Average T 1/2 (converted)): ~360 min
- Tmax ([3]; oral, all doses, read-out: Average t max): ~1 h
- half-life ([3]; oral, day 1, regardless of the dose, read-out: Mean T 1/2, range across doses): 312 to 426 min
- Tmax ([3]; po, after oral intake, read-out: Time to peak plasma concentrations): 1 to 3 h
- cIAP-1 degradation [4]: rapidly induced degradation of cIAP-1
